Experimental data: patent publication US7704995B2 (Exelixis, Inc., priority 2003, dated 2010)

Assays:
Assay type in all cases: biochemical
Chk2 = molecular target: T1, Chk2 (Homo sapiens, UniProt O96017); assay: Chk2 kinase assay: incorporation of γ-33P ATP into immobilized myelin basic protein; settings: 20 nM Chk2, 30 μM unlabeled ATP, 1 hour at room temperature; read-out: Chk2 inhibition, IC50
T1 construct: purchased Upstate Biotechnology
Experimental: Chk1 and Chk2 assays were performed by measuring incorporation of γ-^33P ATP into immobilized myelin basic protein (MBP). High binding white 384 well plates (Greiner) were coated with MBP (Sigma #M-1891) by incubation of 60 ul/well of 20 μg/ml MBP in Tris-buffered saline (TBS; 50 mM Tris pH 8.0, 138 mM NaCl, 2.7 mM KCl) for 24 hours at 4° C. Plates were washed 3× with 100 μl TBS. Kinase reactions were carried out in a total volume of 34 μl in kinase buffer (5 mM Hepes pH 7.6, 15 mM NaCl, 0.01% bovine gamma globulin (Sigma #I-5506), 10 mM MgCl2, 1 mM DTT, 0.02% TritonX-100). Compound dilutions were performed in DMSO and added to assay wells to a final DMSO concentration of 1%. Each data point was measured in duplicate, and at least two duplicate assays were performed for each individual compound determination. […] A mixture of unlabeled ATP and γ-^33P ATP was added to start the reaction (2×10^6 cpm of γ-^33P ATP per well (3000 Ci/mmole) and either 10 μM or 30 μM unlabeled ATP (for Chk1 and Chk2 assays respectively). The reaction was carried out for 1 hour at room temperature with shaking. Plates were washed 7× with TBS, followed by the addition of 50 μl/well scintillation fluid (Wallac). Plates were read using a Wallac Trilux counter. This is only one format of such assays, various other formats are possible, as known to those skilled in the art. […]

Chk1 = molecular target: T2, Chk1 (Homo sapiens, UniProt O14757); assay: Chk1 kinase assay: incorporation of γ-33P ATP into immobilized myelin basic protein; settings: 10 nM Chk1, 10 μM unlabeled ATP, 1 hour at room temperature; read-out: Chk1 inhibition, IC50
T2 construct: purchased Upstate Biotechnology
T2 sequence (O14757 1-476): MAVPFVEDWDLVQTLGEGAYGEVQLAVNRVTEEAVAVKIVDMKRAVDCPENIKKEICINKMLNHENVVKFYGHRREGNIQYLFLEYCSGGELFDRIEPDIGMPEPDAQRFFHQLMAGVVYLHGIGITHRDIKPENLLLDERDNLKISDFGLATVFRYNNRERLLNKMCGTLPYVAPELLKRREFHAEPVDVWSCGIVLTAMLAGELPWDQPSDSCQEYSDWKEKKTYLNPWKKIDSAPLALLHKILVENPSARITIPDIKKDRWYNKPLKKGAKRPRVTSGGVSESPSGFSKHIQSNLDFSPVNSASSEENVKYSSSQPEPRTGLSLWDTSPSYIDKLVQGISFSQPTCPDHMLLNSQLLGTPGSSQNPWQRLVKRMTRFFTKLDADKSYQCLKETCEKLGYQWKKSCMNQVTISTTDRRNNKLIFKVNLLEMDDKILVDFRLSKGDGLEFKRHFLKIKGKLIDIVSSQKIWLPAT
Procedure, shortened: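 Read-out is scintillation counting of 33P incorporated into plate-bound myelin basic protein. Chk1 runs at 10 nM enzyme with 10 μM ATP, Chk2 at 20 nM with 30 μM ATP, each for 1 hour at room temperature. Duplicate points; IC50 taken as 50% activity reduction, Ki computed from IC50.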

KDR = KDR (Homo sapiens, UniProt P35968); assay: Kinase specificity assay (33P phosphoryl transfer, LCCA or AlphaScreen); settings: ATP close to KM; read-out: KDR inhibition, IC50
KDR, sequence (P35968 20-1356): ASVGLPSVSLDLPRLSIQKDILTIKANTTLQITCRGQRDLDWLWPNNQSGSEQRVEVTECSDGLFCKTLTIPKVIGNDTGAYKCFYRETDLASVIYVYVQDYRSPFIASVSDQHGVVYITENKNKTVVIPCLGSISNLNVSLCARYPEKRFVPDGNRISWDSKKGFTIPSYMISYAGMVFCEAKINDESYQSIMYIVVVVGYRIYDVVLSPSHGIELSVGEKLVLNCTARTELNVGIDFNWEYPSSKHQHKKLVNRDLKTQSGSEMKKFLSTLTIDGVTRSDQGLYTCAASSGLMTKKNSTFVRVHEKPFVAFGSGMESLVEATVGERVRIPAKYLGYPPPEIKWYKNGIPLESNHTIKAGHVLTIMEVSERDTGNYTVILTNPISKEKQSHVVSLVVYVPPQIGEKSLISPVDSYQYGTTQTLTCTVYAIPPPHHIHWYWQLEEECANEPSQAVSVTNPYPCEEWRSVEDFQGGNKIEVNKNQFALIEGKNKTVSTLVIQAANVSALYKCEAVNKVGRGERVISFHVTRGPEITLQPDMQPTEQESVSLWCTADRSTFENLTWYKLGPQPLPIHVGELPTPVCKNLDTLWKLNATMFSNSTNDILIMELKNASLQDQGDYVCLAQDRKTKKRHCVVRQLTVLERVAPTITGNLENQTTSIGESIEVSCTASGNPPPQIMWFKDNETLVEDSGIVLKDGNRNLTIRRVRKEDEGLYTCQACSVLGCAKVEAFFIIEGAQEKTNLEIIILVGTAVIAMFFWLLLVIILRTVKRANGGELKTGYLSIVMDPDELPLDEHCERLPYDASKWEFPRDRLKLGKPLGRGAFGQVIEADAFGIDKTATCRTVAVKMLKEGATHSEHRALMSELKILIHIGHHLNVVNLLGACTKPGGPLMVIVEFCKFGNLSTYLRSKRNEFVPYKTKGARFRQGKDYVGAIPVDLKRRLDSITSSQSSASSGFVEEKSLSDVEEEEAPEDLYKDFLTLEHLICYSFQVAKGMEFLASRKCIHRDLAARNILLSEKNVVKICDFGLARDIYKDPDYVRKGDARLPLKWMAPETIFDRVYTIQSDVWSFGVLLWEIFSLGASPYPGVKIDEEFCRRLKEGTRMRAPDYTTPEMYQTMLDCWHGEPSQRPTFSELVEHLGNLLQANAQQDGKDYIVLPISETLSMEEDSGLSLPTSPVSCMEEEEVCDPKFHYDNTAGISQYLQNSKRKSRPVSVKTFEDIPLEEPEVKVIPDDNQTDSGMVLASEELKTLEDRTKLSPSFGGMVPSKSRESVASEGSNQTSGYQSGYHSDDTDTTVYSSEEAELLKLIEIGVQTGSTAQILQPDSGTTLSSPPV
Experimental: Kinase activity and compound inhibition are investigated using one or more of the three assay formats described below. The ATP concentrations for each assay are selected to be close to the Michaelis-Menten constant (KM) for each individual kinase. Dose-response experiments are performed at 10 different inhibitor concentrations in a 384-well plate format.
The coating solution is aspirated and the plates are washed once with 50 μL of assay buffer and padded dry. […] The plates are subsequently washed 6-12 times with PBST or TBS buffer.

T1 sequence (O96017 whole entry): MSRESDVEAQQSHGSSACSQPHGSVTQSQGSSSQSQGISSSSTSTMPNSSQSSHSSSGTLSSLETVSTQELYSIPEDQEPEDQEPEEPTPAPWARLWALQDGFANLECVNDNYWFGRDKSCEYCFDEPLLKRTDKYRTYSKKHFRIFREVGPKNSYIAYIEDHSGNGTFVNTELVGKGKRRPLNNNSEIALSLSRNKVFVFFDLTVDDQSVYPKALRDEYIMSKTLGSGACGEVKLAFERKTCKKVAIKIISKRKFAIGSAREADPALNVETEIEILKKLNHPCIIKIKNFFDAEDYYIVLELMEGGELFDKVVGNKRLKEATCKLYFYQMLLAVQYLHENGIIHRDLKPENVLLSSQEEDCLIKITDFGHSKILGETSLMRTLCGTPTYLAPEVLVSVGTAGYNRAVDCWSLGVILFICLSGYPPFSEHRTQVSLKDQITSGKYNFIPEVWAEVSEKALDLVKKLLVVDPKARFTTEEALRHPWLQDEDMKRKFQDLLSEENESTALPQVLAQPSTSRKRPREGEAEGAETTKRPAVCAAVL

`NC(=O)c1nc(-c2cccc3ccccc23)cnc1N` [Example 2, 3-Amino-6-naphthalen-1-ylpyrazine-2-carboxamide] was tested. Which IC50 (Chk2) did it give?
The IC50 was under 0.05 µM.

What about the IC50 (Chk1) of the same molecule?
Its IC50 is under 0.05 µM.

And the IC50 (KDR)?
The IC50 was 0.05 to 1 µM.
